Laboratory results taken from patent US9018216B2, “Solid forms of (R)-2-(5-(2-(3-ethylureido)-6-fluoro-7-(tetrahydrofuran-2-yl)-1H-benzo[d]imidazol-5-yl)pyrimidin-2-yl)propan-2-yl dihydrogen phosphate and salts thereof” (priority 2012, dated 2015).
Values joined by “and” are separate entries in the source; they are usually repeats but may differ in a detail not shown here. Equal entries are not always repeated. Where two headings read alike, the source gives them in different places.

Columns and labels:
[1] = Stability of the solid forms (net increase in total impurities at 40 C/30% RH); format: physicochemical
[2] = Vapor sorption (DVS) of free forms; format: physicochemical
Experimental: In one embodiment, the hydrated Free Form A may be converted to anhydrous Free Form B of the compound by equilibrating in a low humidity environment. […] Upon dehydrating hydrated Free Form A, a corresponding anhydrous Free Form B may be obtained. […] Whether the hydrated Free Form A could absorb additional water is not known at this time. […] At 25° C., the critical humidity for conversion is around 40% (see vapor sorption experiment). […] Humidity was then changed by 5% increments until 95% RH was achieved using the same limiting conditions. The reverse steps were executed on the desorption side from 95% down to 5% RH, while always maintaining 25° C. temperature.

S. aureus DNA Topo IV = S. aureus DNA Topo IV (Staphylococcus aureus, UniProt P0C1S7); experiment: DNA Topo IV ATPase assay; format: biochemical; details: solid forms, Table 27c
Experimental: The conversion of ATP to ADP by S. aureus TopoIV enzyme was coupled to the conversion of NADH to NAD+, and the progress of the reaction was measured by the change in absorbance at 340 nm. TopoIV (64 nM) was incubated with the selected compound (3% DMSO final) in buffer for 10 minutes at 30° C. The buffer consisted of 100 mM Tris 7.5, 1.5 mM MgCl2, 200 mM K·Glutamate, 2.5 mM phosphoenol pyruvate, 0.2 mM NADH, 1 mM DTT, 5 ng/mL linearized DNA, 50 ng/mL BSA, 30 ng/mL pyruvate kinase, and 10 ng/mL lactate dehyrodgenase (LDH). The reaction was initiated with ATP, and rates were monitored continuously for 20 minutes at 30° C. on a Molecular Devices SpectraMAX plate reader. The inhibition constant, Ki, and the IC50 were determined from plots of rate vs. concentration of selected compound fit to the Morrison Equation for tight binding inhibitors.

E. coli DNA Topo IV = experiment: E. coli enzyme ATPase inhibition assay (Table 27b); format: biochemical; details: E. coli DNA Topo IV (table title), solid forms
[3] = tested on: Staphylococcus aureus ATCC 29213; experiment: microbe, parasite or virus in culture; format: cell-based; details: Protocol 1
[4] = tested on: Enterococcus faecium ATCC 49624; experiment: Gyrase MIC determination using microdilution broth method (Protocol 1); format: cell-based
Escherichia coli AG100 = experiment: Gyrase MIC determination against Gram negatives using microdilution broth method (Protocol 2); format: cell-based
Experimental: (§1) Compounds of this invention were tested for antimicrobial activity by susceptibility testing in liquid media. […] The specific protocols used were as follows:
(§2) Protocol 2: Gyrase MIC Determination of Compounds Against Gram Negatives Using Microdilution Broth Method
(§3) Strains (MHII Media for all; Broth and Agar): • 1. Escherichia coli AG100 WT • 2. Escherichia coli AG100 tolC • 3. […] Haemophilus influenzae Rd0894 (AcrA−)
(§4) Inoculum Prep: • 1. Using the BBL Prompt kit, picked 5 big or 10 small, well separated colonies from cultures grown on agar medium and inoculated 1 mL sterile saline that came with the kit. • 2. Vortexed the wells for ˜30 s to give a suspension of ˜10^8 cells/mL. Actual density could be confirmed by plating out dilutions of this suspension. • 3. Diluted the suspension 1/100 by transferring 0.15 mL of cells into 15 mL (˜10^6 cells/mL) sterile broth (see below) for each plate of compounds tested, swirled to mix. […] Used 50 μl cells (˜5×10^4 cells) to inoculate each microtiter well containing 50 μl of the drug diluted in broth (see below).
(§5) Drug Dilutions, Inoculation, MIC Determination: • 1. […] Diluted drug/compound stocks to 200× desired final concentration in 50 μL DMSO. If starting concentration of MICs was 8 μg/mL final concentration, then required 6.25 μL of stock+43.75 μL DMSO. Each 200× stock was placed in a separate row of column 1 of a new 96 well microtiter plate. • 3. Added 25 μL of DMSO to columns 2-12 of all rows of the microtiter plate containing 200× compound stocks and serially diluted 25 μL from column 1 through column 11, changed tips after each column. i.e. 25 μL compound+25 μL DMSO=2× dilution. Left “no compound” DMSO well at the end of the series for control. • 4. For each strain tested, prepared two microtiter plates with 50 μL of MHII broth using a Matrix pipettor. • 5. Transferred 0.5 μL of each dilution (w/Matrix auto-pipettor) to 50 μL of medium/microtiter well prior to the addition of 50 μl of cells. The usual starting concentration of compound was 8 μg/mL after the 1/200 dilution into medium+cells−compound concentrations decreased in 2× steps across the rows of a microtiter plate. All MICs were done in duplicate. • 6. All wells were inoculated with 50 μl of diluted cell suspension (see above) to a final volume of 100 μl. • 7. After inoculum was added, each well was mixed thoroughly with a manual multichannel pipettor; same tips were used going from low to high concentration of drug in the same microtiter plate. • 8. Plates were incubated at 37° C. for at least 18 hours. • 9.
(§6) Examined the test plates after the correct incubation time and read the MIC endpoint at the concentration where a marked reduction occurred in the appearance of growth on the test plate as compared to that of growth on the positive control plates.

Haemophilus influenzae = experiment: as above; format: cell-based; details: Haemophilus influenzae Rd0894 (AcrA-)
Experimental: as §1, §2, §3, §4, §5, §6

S. aureus DNA gyrase = S. aureus DNA gyrase (Staphylococcus aureus, UniProt P0A0K8); experiment: DNA gyrase ATPase assay; details: solid forms, Table 27a
[5] = tested on: Enterococcus faecalis ATCC 29212; experiment: Gyrase MIC determination using microdilution broth method (Protocol 1); format: cell-based; details: Enterococcus faecalis ATCC 29212, with 3% Laked Horse Blood
[6] = Staphylococcus aureus ATCC 29213
[7] = Staphylococcus aureus ATCC 29213 with 50% Mouse Serum
[8] = Enterococcus faecium ATCC 49624 with 3% Laked Horse Blood

SMILES	Net % increase in total impurities ([1]; 15 days) [%]	water content of fully hydrated form (vapor sorption isotherm) ([2]; vapor sorption, 25° C.)	Ki (S. aureus DNA Topo IV) [nM]	Ki (E. coli DNA Topo IV) [nM]	MIC [3, 6] [µg/mL]	MIC ([3]; Staphylococcus aureus, ATCC29213, Staphylococcus aureus ATCC 29213 with 50% Mouse Serum, read-out: MIC) [µg/mL]	MIC ([4]; ATCC49624, Enterococcus faecium ATCC 49624 with 3% Laked Horse Blood, read-out: MIC) [µg/mL]	MIC (Escherichia coli AG100; Escherichia coli AG100 WT)	MIC (Escherichia coli AG100; Escherichia coli AG100 tolC) [µg/mL]	MIC (Haemophilus influenzae) [µg/mL]	Ki (S. aureus DNA gyrase) [nM]	Net % increase in total impurities ([1]; 17 days, listed as C) [%]	MIC ([3]; Staphylococcus aureus ATCC 29213 GyrB T173I) [µg/mL]	MIC [3, 7]	MIC ([3]; Staphylococcus aureus, ATCC29213, Staphylococcus aureus ATCC 29213, read-out: MIC) [µg/mL]	MIC [5] [µg/mL]	MIC [4, 8] [µg/mL]	MIC (Haemophilus influenzae; read-out: MIC) [µg/mL]	Net % increase in total impurities ([1]; 17 days, listed as B) [%]	critical humidity for conversion of Free Form B back to Free Form A ([2]; At 25° C.)
CCNC(=O)Nc1nc2cc(-c3cnc(C(C)(C)OP(=O)(O)O)nc3)c(F)c([C@H]3CCCO3)c2[nH]1 [Form A, (R)-2-(5-(2-(3-ethylureido)-6-fluoro-7-(tetrahydrofuran-2-yl)-1H-benzo[d]imidazol-5-yl)pyrimidin-2-yl)propan-2-yl dihydrogen phosphate]	0.07	about 6 weight %	< 4	11	4	1	4	>8 µg/mL	>8	0.25	26	–	–	–	–	–	–	–	–	–
CCNC(=O)Nc1nc2cc(-c3cnc(C(C)(C)OP(=O)(O)O)nc3)c(F)c([C@H]3CCCO3)c2[nH]1 [Form C, (R)-2-(5-(2-(3-ethylureido)-6-fluoro-7-(tetrahydrofuran-2-yl)-1H-benzo[d]imidazol-5-yl)pyrimidin-2-yl)propan-2-yl dihydrogen phosphate]	–	–	–	< 6	–	–	–	>16 µg/mL and >8 µg/mL	–	–	27	0.18	>16	1 µg/mL and 2 µg/mL	4	2	4	0.25	–	–
CCNC(=O)Nc1nc2cc(-c3cnc(C(C)(C)OP(=O)(O)O)nc3)c(F)c([C@H]3CCCO3)c2[nH]1 [Form B, (R)-2-(5-(2-(3-ethylureido)-6-fluoro-7-(tetrahydrofuran-2-yl)-1H-benzo[d]imidazol-5-yl)pyrimidin-2-yl)propan-2-yl dihydrogen phosphate]	–	–	10	< 6	4	–	–	2 µg/mL	2	0.25	< 25	–	–	1 µg/mL	–	–	4	–	0.16	around 40%
